Source: patent US20130065763A1, “Biocide Compositions Comprising Isoamyl Lactate” (priority 2010, published 2013)

Assay: Solubility in water of each lactate
Format: physicochemical
Settings: for Solubility in Water: solubility of the lactate solvent in water, yes = water soluble
Protocol: Solubility of several pesticides was measured in Isoamyl lactate versus other lactates. In addition the solubility in water of each lactate has been checked.

Row | SMILES | Solubility in Water | Water solubility (statement in description)
1 | CC(C)OC(=O)C(C)O (stereo not shown) [Example C4, Isopropyl lactate] | yes | –
2 | CCCCOC(=O)C(C)O (stereo not shown) [Example C3, Butyl lactate] | yes | –
3 | CC(C)CCOC(=O)C(C)O (stereo not shown) [Example 6, Isoamyl lactate] | <1% | not water soluble
